Results from ChEMBL document CHEMBL4359884, “Design, synthesis and biological evaluation of novel pleuromutilin derivatives possessing acetamine phenyl linker” (Eur J Med Chem, 2019).
In brackets after ≈: the same amount, converted by molar mass.

Assays:
Format in all cases: functional
Staphylococcus aureus [1] = test: Antibacterial activity against Staphylococcus aureus ATCC 29213 assessed as bacterial growth inhibition incubated for 24 hrs by broth dilution method; settings: ATCC 29213, 24 h
Escherichia coli [2] = test: Antibacterial activity against Escherichia coli ATCC 25922 assessed as bacterial growth inhibition incubated for 24 hrs by broth dilution method; settings: ATCC 25922, 24 h
Staphylococcus aureus [3] = test: Antibacterial activity against Staphylococcus aureus AD3 assessed as bacterial growth inhibition incubated for 24 hrs by broth dilution method; settings: AD3, 24 h
Escherichia coli [4] = test: Antibacterial activity against Escherichia coli 9-1 assessed as bacterial growth inhibition incubated for 24 hrs by broth dilution method; settings: 9-1, 24 h
Staphylococcus aureus [5] = test: Antibacterial activity against methicillin-resistant Staphylococcus aureus ATCC 43300 assessed as bacterial growth inhibition incubated for 24 hrs by broth dilution method; settings: ATCC 43300, 24 h

SMILES	MIC (Staphylococcus aureus [1]) [µg/mL]	MIC (Escherichia coli [2]) [µg/mL]	MIC (Staphylococcus aureus [3]) [µg/mL]	MIC (Escherichia coli [4]) [µg/mL]	MIC (Staphylococcus aureus [5]) [µg/mL]
C=C[C@]1(C)C[C@@H](OC(=O)CSc2ccccc2NC(=O)CN2CCN(c3ccccc3)CC2)[C@]2(C)[C@H](C)CC[C@]3(CCC(=O)[C@H]32)[C@@H](C)[C@@H]1O	0.25 (≈ 0.363 µM)	> 32	0.25 (≈ 0.363 µM)	> 32	0.25 (≈ 0.363 µM)
C=C[C@]1(C)C[C@@H](OC(=O)CSc2ccccc2NC(=O)CN2CCN(c3ccc(C)cc3)CC2)[C@]2(C)[C@H](C)CC[C@]3(CCC(=O)[C@H]32)[C@@H](C)[C@@H]1O	> 8	> 32	> 8	> 32	> 8
C=C[C@]1(C)C[C@@H](OC(=O)CSc2ccccc2NC(=O)CN2CCN(C)CC2)[C@]2(C)[C@H](C)CC[C@]3(CCC(=O)[C@H]32)[C@@H](C)[C@@H]1O	0.5 (≈ 0.799 µM)	> 32	0.5 (≈ 0.799 µM)	> 32	0.5 (≈ 0.799 µM)
C=C[C@]1(C)C[C@@H](OC(=O)CSc2ccccc2NC(=O)CN2CCN(c3ccc(O)cc3)CC2)[C@]2(C)[C@H](C)CC[C@]3(CCC(=O)[C@H]32)[C@@H](C)[C@@H]1O	1 (≈ 1.42 µM)	> 32	0.5 (≈ 0.71 µM)	> 32	1 (≈ 1.42 µM)
C=C[C@]1(C)C[C@@H](OC(=O)CSc2ccccc2NC(=O)CN(CC)CC)[C@]2(C)[C@H](C)CC[C@]3(CCC(=O)[C@H]32)[C@@H](C)[C@@H]1O	0.125 (≈ 0.209 µM)	> 32	0.125 (≈ 0.209 µM)	> 32	0.125 (≈ 0.209 µM)
C=C[C@]1(C)C[C@@H](OC(=O)CSc2ccccc2NC(=O)CN2CCN(c3ccccc3OC)CC2)[C@]2(C)[C@H](C)CC[C@]3(CCC(=O)[C@H]32)[C@@H](C)[C@@H]1O	> 8	> 32	> 8	> 32	> 8
C=C[C@]1(C)C[C@@H](OC(=O)CSc2ccccc2NC(=O)CN2CCN(c3cccc(O)c3)CC2)[C@]2(C)[C@H](C)CC[C@]3(CCC(=O)[C@H]32)[C@@H](C)[C@@H]1O	0.25 (≈ 0.355 µM)	> 32	0.25 (≈ 0.355 µM)	> 32	0.125 (≈ 0.178 µM)
C=C[C@]1(C)C[C@@H](OC(=O)CSc2ccccc2NC(=O)CN2CCN(c3cccc(OC)c3)CC2)[C@]2(C)[C@H](C)CC[C@]3(CCC(=O)[C@H]32)[C@@H](C)[C@@H]1O	> 8	> 32	1 (≈ 1.39 µM)	> 32	4 (≈ 5.57 µM)
C=C[C@]1(C)C[C@@H](OC(=O)CSc2ccccc2NC(=O)CN2CCC(O)CC2)[C@]2(C)[C@H](C)CC[C@]3(CCC(=O)[C@H]32)[C@@H](C)[C@@H]1O	0.125 (≈ 0.199 µM)	> 32	0.25 (≈ 0.399 µM)	> 32	0.125 (≈ 0.199 µM)
C=C[C@]1(C)C[C@@H](OC(=O)CSc2ccccc2NC(=O)CN2CCN(c3ccccc3C)CC2)[C@]2(C)[C@H](C)CC[C@]3(CCC(=O)[C@H]32)[C@@H](C)[C@@H]1O	4 (≈ 5.7 µM)	> 32	2 (≈ 2.85 µM)	> 32	2 (≈ 2.85 µM)
C=C[C@]1(C)C[C@@H](OC(=O)CSc2ccccc2NC(=O)CN2CCN(c3ccccc3Cl)CC2)[C@]2(C)[C@H](C)CC[C@]3(CCC(=O)[C@H]32)[C@@H](C)[C@@H]1O	8 (≈ 11.1 µM)	> 32	8 (≈ 11.1 µM)	> 32	8 (≈ 11.1 µM)
